Data: patent publication US5308843A, “Method of inhibiting mammalian topoisomerase II and malignant cell growth in mammals, with substituted (S)-3-methyl-7-oxo-2,3-dihydro-7H-pyrido[1,2,3-de][1,4 ]-benzoxazine(and-benzothiazine)-6-carboxylic acids” (Sterling Drug Inc., priority 1990, dated 1994)
“Also recorded” adds a separate entry of the source.

Assays:
[1] = In vivo antitumor assay, pancreatic ductal adenocarcinoma No. 03 (Panc03, SC); parameters: species or system mice; settings: mouse, in vivo; Panc03 (SC); drug SC; QD3-9; read-out: Maximum Tolerated Total Dose
Description: (§1) In vivo Antitumor Assay Procedure
(§2) Mice: Inbred: C3H/He; and Hybrids: B6D2F1 (C57BL/6 females×DBA/2 males), CD2F1 (Balb/c females×DBA/2 males) and B6C3F1 (C57BL/6×C3H) were bred at Wayne State University from strains obtained from the Frederick Cancer Research Facility, Frederick, Md. or from commercial suppliers.
(§3) Tumors: Murine Tumors: P388 leukemia and the following transplantable solid tumors of mice were used for in vivo testing: B16 melanoma, pancreatic ductal adenocarcinoma No. 03, colon adenocarcinoma No. 38 and mammary ductal adenocarcinoma No. 16/C. All tumors are in the Developmental Therapeutics Program frozen tumor repository, maintained by the Biological Testing Branch, Frederick, Md. Each has a detailed description, code identification number, and list of references at the National Tumor Repository. Tumors were maintained in the mouse strain of origin and were transplanted in the appropriate F1 hybrid (or the strain of origin) for therapy trials. The mice were supplied food and water ad libitum.
(§4) Chemotherapy: For pancreatic ductal adenocarcinoma No. 03, colon adenocarcinoma No. 38, and mammary ductal adenocarcinoma No. 16, the following methods were used to help ensure a more uniform tumor burden per mouse (thus reducing the requirement for greater numbers of mice per group), bilateral tumor implants were used. The animals necessary to begin an experiment were pooled, implanted bilaterally s.c. on day zero with 30-60-mg tumor fragments using a 12-gauge trocar, and again pooled before randomization to the various treatment and control groups. Chemotherapy was started within three days after tumor implantation while the number of cells per mouse was relatively small (1×10^7 -1×10^8 cells).
(§5) End Points for Assessing Antitumor Activity: Quantitative end points used to assess antitumor activity included % Increased Life Span (% ILS), Tumor Cell Kill (Log10 kill), and Tumor Growth Inhibition (T/C). Long Term Survivors (45 or 60 day) were excluded from calculations of % ILS and Tumor Cell Kill.
(§6) Endpoints were calculated as follows: [formula] where Dt is the median day of death for treated and Dc is the median day of death for control groups.
(§7) T/C Value: Tumors were measured with a caliper once or twice weekly (as needed) until either tumors exceeded 1600 mg or cure was assured. Tumor weights were estimated from two-dimensional measurements: Tumor Weight (mg)=(a×b^2)/2, where a and b are the tumor length and width (mm), respectively. Measurements were carried out simultaneously in both the treatment and control groups. When the control group tumors reached approximately 750-1500 mg in size (median of group), the median tumor weight of each group was determined (including zeros). The T/C value in percent is an indication of antitumor effectiveness. […]. […]

[2] = test system: pancreatic ductal adenocarcinoma No. 03; assay: as above; parameters: species or system mice
Description: as §1, §2, §3, §4, §5, §6, §7

[3] = In vivo antitumor assay, colon adenocarcinoma No. 38 (SC); parameters: species or system mice; settings: mouse, in vivo; Colon 38 (SC); drug SC; QD3-9; read-out: Maximum Tolerated Total Dose
Description: as §1, §2, §3, §4, §5, §6, §7

[4] = test system: colon adenocarcinoma No. 38; assay: as above; parameters: species or system mice
Description: as §1, §2, §3, §4, §5, §6, §7

[5] = In vivo antitumor assay, P388 leukemia (IP); parameters: species or system mice; settings: mouse, in vivo, P388(IP) 10^6 cells, drug IP, read-out: Maximum Tolerated Total Dose
Description: as §1, §2, §3
(§8) For P388 leukemia and B16 melanoma studies the tumor cells were implanted IP on day zero and treatment was started on day one (also IP). Titered controls were also included to facilitate the calculation of tumor cell kill.
as §5, §6
(§9) The log10 cell kill was calculated from the following formula: [formula] where T-C is the tumor difference in the median day of death between the treated (T) and the control (C) groups and Td is the tumor doubling time (in days), the latter estimated from the best fit straight line from a log-linear growth plot of the control-group tumors in exponential growth. The conversion of the T-C values to log10 cell kill is possible because the Td for tumors regrowing post-treatment approximated the Td values of the tumors in untreated control mice.

P388 leukemia = assay: In vivo antitumor assay, P388 leukemia (IP); parameters: species or system mice; settings: for % ILS / Long Term Survivors: P388(IP) 10^6 cells, drug IP
Description: as §1, §2, §3, §8, §5, §6, §9

several tumor systems = assay: Antitumor activity in mice against several tumor systems (overall statement); assay type: in vivo
Description: as §1, §2
as §3, with “libitum. […]” for “libitum.”
End Points for Assessing Antitumor Activity: Quantitative end points used to assess antitumor activity included % Increased Life Span (% ILS), Tumor Cell Kill (Log10 kill), and Tumor Growth Inhibition (T/C). […]

[6] = In vivo antitumor assay, mammary ductal adenocarcinoma No. 16/C (SC); parameters: species or system mice; settings: mouse, in vivo; Mam16/C (SC); drug SC; QD1-4; read-out: Maximum Tolerated Total Dose
Description: as §1, §2, §3, §4, §5, §6, §7

[7] = test system: mammary ductal adenocarcinoma No. 16/C; assay: as above; parameters: species or system mice
Description: as §1, §2, §3, §4, §5, §6, §7

Q: Which results are given for Cc1cc(-c2c(F)cc3c(=O)c(C(=O)O)cn4c3c2SC[C@@H]4C)cc(C)n1 [Example 5, (S)-10-(2,6-Dimethyl-4-pyridinyl)-9-fluoro-3-methyl-7-oxo-2,3-dihydro-7H-pyrido[1,2,3-de][1,4]benzothiazine-6-carboxylic acid]?
A: MTD [1]: 781 mg/kg; Long Term Survivors ([2]; Panc03 (SC), drug SC, QD3-9, 781 mg/kg total): 0/5; % T/C ([2]; Panc03 (SC), drug SC, QD3-9, at maximum tolerated total dose 781 mg/kg): 17%; antitumor activity (in words) ([2]; Pancreatic Ductal Adenocarcinoma 03): clearly active; MTD [3]: 504 mg/kg; Long Term Survivors ([4]; Colon 38 (SC), drug SC, QD3-9, 504 mg/kg total, footnote 4: Cure, no tumor evident, day 119): 1/5; % T/C ([4]; Colon 38 (SC), drug SC, QD3-9, at maximum tolerated total dose 504 mg/kg): 0%; antitumor activity (in words) ([4]; Colon Adenocarcinoma 38): Cure; no tumor evident; day 119; also recorded: clearly active; also recorded: highly active; MTD ([5]; QD1,5,9, vehicle 5% EtOH, 1% NaHCO3, 0.3% tween40 (pH 8.3)): 1010 mg/kg; MTD ([5]; QD1-7, vehicle 3% EtOH, 3% NaHCO3, 1% tween40): 504 mg/kg; % ILS (P388 leukemia; QD1,5,9, 1014 mg/kg total): 90%; Long Term Survivors (P388 leukemia; QD1,5,9, 1014 mg/kg total): 0/6; % ILS (P388 leukemia; QD1-7, 504 mg/kg total): 92%; Long Term Survivors (P388 leukemia; QD1-7, 504 mg/kg total): 0/5; antitumor activity (in words) (P388 leukemia; P388, 90% ILS): excellent activity; log10 tumor cell kill (P388 leukemia; P388, equal to 90% ILS): 5.2-7.0 log10; antineoplastic activity (in words) (several tumor systems): found to possess antineoplastic activity as evidenced by its activity in reducing the size of and curing tumors, and increasing the survival time of the mice; MTD [6]: 263 mg/kg; Long Term Survivors ([7]; Mam16/C (SC), drug SC, QD1-4, 263 mg/kg total): 0/5; % T/C ([7]; Mam16/C (SC), drug SC, QD1-4, at maximum tolerated total dose 263 mg/kg): 15%; antitumor activity (in words) ([7]; Mammary Adenocarcinoma No. 16/C): clearly active
